For assay [1], the target named is T1, human 5HT1A receptor (Homo sapiens, UniProt P08908).
T1 construct: expressed in transfected cells; host or cells: CHO cells, stably transfected
T1 sequence (P08908 1-422): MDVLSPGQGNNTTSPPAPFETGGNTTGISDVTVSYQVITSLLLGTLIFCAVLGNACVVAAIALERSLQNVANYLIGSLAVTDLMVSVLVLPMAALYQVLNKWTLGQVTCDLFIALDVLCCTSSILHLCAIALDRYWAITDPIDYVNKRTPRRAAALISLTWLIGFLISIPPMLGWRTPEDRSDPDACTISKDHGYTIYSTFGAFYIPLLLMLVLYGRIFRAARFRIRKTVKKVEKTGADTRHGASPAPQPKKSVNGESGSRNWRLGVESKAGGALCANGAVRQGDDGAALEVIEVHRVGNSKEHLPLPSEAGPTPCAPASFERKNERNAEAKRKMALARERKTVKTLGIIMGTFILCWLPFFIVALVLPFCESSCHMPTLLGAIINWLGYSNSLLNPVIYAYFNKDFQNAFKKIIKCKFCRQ
The assay can be described thus: 5-HT1A receptor intrinsic activity assay (cAMP, RIA). Particulars: for cAMP Emax: agonist activity: reversal of forskolin-stimulated cAMP in CHO cells with human 5-HT1A receptor, % printed only; for IC50: antagonist, reversal of agonist induced activity, compounds with Emax = 0 %, preincubated 20 minutes before agonist and forskolin. Type of assay: cell-based. How it is done: 5-HT1A Receptor Intrinsic Activity Assay
The intrinsic activity of compounds of the present invention was established by testing the claimed compounds ability to reverse the stimulation of cyclic adenosinemonophosphate (cAMP) in CHO cells stably transfected with the human 5-HT1A receptor. Stably transfected CHO cells were grown in DMEM containing 10% heat inactivated FBS and non-essential amino acids. The cells are plated at a density of […] per well in a 24 well plate and incubated for 2 days in a CO2 incubator. On the second day, the media is replaced with 0.5 mL treatment buffer (DMEM + 25 mM HEPES, 5 mM theophylline, […] pargyline) and incubated for 10 minutes at 37°C. Wells are treated with forskolin ([…]) followed immediately by the test compound ([…] for initial screen) and incubated for an additional 10 minutes at 37°C. The reaction is terminated by removal of the media and addition of 0.5 mL ice cold assay buffer (supplied in the RIA kit). Plates are stored at -20°C prior to assessment of cAMP formation by RIA. EC50 values are determined for the active test compounds. Compounds shown to have no agonist activities (Emax = 0 %) are further analyzed for their ability to reverse agonist induced activity. In separate experiments, 6 concentrations of antagonist are preincubated for 20 minutes prior to the addition of agonist and forskolin. Cells are harvested as described above. The cAMP kit is supplied by Amersham and the RIA is performed as per kit instructions, and calculations of IC50 performed by GraphPad Prism.

Assay [2] addresses T1, human 5HT1A receptor. The assay can be described thus: 5-HT1A receptor binding assay ([3H] 8-OH-DPAT displacement). To be noted: displacement of [3H] 8-OH-DPAT (1.5 nM) in CHO cells stably transfected with the human 5HT1A receptor. How it is done: 5-HT1A Receptor Binding Assay
High affinity for the serotonin 5-HT1A receptor was established by testing the claimed compound's ability to displace [^3H] 8-OH-DPAT binding in CHO cells stably transfected with the human 5HT1A receptor. Stably transfected CHO cells are grown in DMEM containing 10% heat inactivated FBS and non-essential amino acids. Cells are scraped off the plate, transferred to centrifuge tubes, and washed twice by centrifugation (2000 rpm for 10 min., 4°C) in buffer (50 mM Tris pH 7.5). The resulting pellets are aliquoted and placed at -80°C. On the day of assay, the cells are thawed on ice and resuspended in buffer. The binding assay is performed in a 96 well microtiter plate in a total volume of […]. Non-specific binding is determined in the presence of […] 5-HT, final ligand concentration is 1.5 nM. Following a 30 minute incubation at room temperature, the reaction is terminated by the addition of ice cold buffer and rapid filtration through a GF/B filter presoaked for 30 minutes in 0.5% PEI. Compounds are initially tested in a single point assay to determine percent inhibition at […], and Ki values are determined for the active compounds.

For orientation: EC50 means the midpoint of the concentration-response curve. In general, Ki refers to a dissociation constant, usually derived from enzyme kinetics or from competition with a known ligand. Read a low Ki as a stronger hold on the target. A word on the IC50: it is the concentration that gives 50% inhibition.

Take `O=C(N[C@@H](Cc1ccccc1)CN1CCN(c2nsnc2Cl)CC1)C1CCCCC1.O=C(O)/C=C/C(=O)O` [Compound 4, Cyclohexanecarboxylic acid {(1S)-1-benzyl-2-(4-(4-chloro[1,2,5}thiadiazol-3-yl)piperazin-1-yl]ethyl}amide fumarate]: the “cAMP Emax” value on human 5HT1A receptor [1] is recorded as 93.00%. Further, the concentration giving a half-maximal response (EC50) at human 5HT1A receptor [1] (agonist, reversal of forskolin-stimulated cAMP in transfected CHO cells) is 4.61 nM. This compound also returned a Ki on human 5HT1A receptor [2] of 0.84 nM.
On human 5HT1A receptor [2], `O=C(N[C@@H](Cc1ccccc1)CN1CCN(c2nsnc2Cl)CC1)c1ccncc1` [Compound 5] gave a Ki of 425 nM.
For the compound `CN(C(=O)C1CCCCC1)[C@H](Cc1ccccc1)CN1CCN(c2nsnc2Cl)CC1` [Compound 7], on human 5HT1A receptor [1], the “cAMP Emax” value was found to be 0.00% and the IC50 turned out to be 49.3 nM. At human 5HT1A receptor [2], the Ki was 4.55 nM.
In the same order, the values of `COc1nsnc1N1CCN(C[C@@H](Cc2ccccc2)N(C)C(=O)C2CCCCC2)CC1` [Compound 8, Cyclohexanecarboxylic acid {(1R)-1-benzyl-2-[4-(4-methoxy-[1,2,5]thiadiazol-3-yl)-piperazine-1-yl]ethyl}methyl amide] are 0.00%, 72.7 nM and 1.55 nM.
`COc1nsnc1N1CCN(CC(Cc2ccccc2)N(C)C(=O)c2ccccc2)CC1` (centres unmarked) [Compound 9, N-{1-Benzyl-2-[4-(4-methoxy-[1,2,5]thiadiazol-3-yl)piperazin-1-yl]ethyl]-N-methylbenzamide]: the affinity at human 5HT1A receptor [2] corresponds to a Ki of 9.87 nM.
On to `COc1nsnc1N1CCN(C[C@@H](Cc2cccnc2)NC(=O)C2(C)CCCCC2)CC1` [Compound 11, 1-Methylcyclohexanecarboxylic acid {(1R)-2-[4-(4-methoxy-[1,2,5]thiadiazol-3-yl)-piperazin-1-yl]-1-pyridin-3-ylmethylethyl} amide], for which, at human 5HT1A receptor [1], the “cAMP Emax” value is recorded as 0.000% and the IC50 came to 113 nM. The inhibition constant (Ki) on human 5HT1A receptor [2] amounted to 3.04 nM.

(Values after patent EP1161424B1, “NEW DIAZOLE DERIVATIVES AS SEROTONERGIC AGENTS” (Wyeth, priority 1999, dated 2000).)
